These results are taken from US20060063736A1, “Compositions and methods for inhibiting mucin-type O-linked glycosylation” (priority 2004, published 2006).

Assay [1] concerns HEK 293T cells. Kind of assay: Jacalin staining of O-linked glycans on HEK 293T cells. Format: cell-based, human. The note with it: 100 μM, 24 h. The procedure:
(§1) HEK 293T cells were seeded at 20,000 cells/mL in a 24-well plate (Costar) fit with glass cover slips (Fisher). After 24 h of incubation with 100 μM 1-68A, cells were washed twice with PBS (pH 7.4) and fixed with 4% paraformaldehyde-PBS for 1 h at rt. The cells were washed twice with PBS and incubated with permeabilization solution (0.1% Triton X-100 in 0.1% sodium citrate, freshly prepared) for 2 min on ice. After the cells were washed twice with PBS, 50 μL of TUNEL reaction mixture (1:10 dilution, Boehringer Mannheim) was added. The plate was covered with parafilm to avoid evaporative loss and incubated in a humidified atmosphere for 1 h at 37° C. in the dark. The cells were then rinsed three times with PBS and blocked with 2% BSA in PBST (PBS, 0.05% Tween 20) for 30 min at rt. Following one wash with PBS, the cells were incubated with 100 μL of FITC-jacalin (4 μg/mL in PBST) for 1 h at 37° C. in the dark. […] Slides were analyzed by fluorescence microscopy (Zeiss, using Openlab software).
(§2) To determine if the inhibition of O-linked glycosylation and induction of apoptosis by 1-68A and 2-68A were specific to Jurkat cells, the effects of 1-68A on human embryonic kidney (HEK) 293T cells were evaluated. In this case, O-linked glycans on the cell surface were monitored by staining with jacalin, a lectin that binds core 1 structures (Galβ1,3-GalNAcα1-Ser/Thr). […]

For assay [2], the system named is HEK 293T cells. Kind of assay: TUNEL staining of HEK 293T cells (apoptosis). The assay is classed as cell-based, human. The settings on record: 100 μM, 24 h. As for the experimental part:
as §1, §2

On to `O=c1ccn([C@@H]2O[C@H](CON=Cc3ccc(O)c(O)c3O)[C@@H](O)[C@H]2O)c(=O)[nH]1` [1-68A], for which the “effect on jacalin staining” value in assay [1] is on record as “inhibits”. Moreover, the “effect on TUNEL staining compared to untreated cells” value in assay [2] is recorded as “increases”.
